pEC50: −log10 of the molar value.
How the values were obtained:
Format in all cases: cell-based
[1] = test system: U138 glioblastoma cell line; assay: In-vitro cell survival assay (Alamar blue), U138; conditions: U138, one day after compound addition
Description: (§1) Five tumor-derived cell lines were treated with the ROS inhibitor compounds and cell survival was monitored to determine the cancer prohibition effects of the compounds. The cell lines included HeLa, a cervical cancer cell line, and four glioblastoma cell lines U138, U87, LN18, and U118. The basic protocol for the in-vitro cell survival assay is the same for all five cell lines. In particular, the cells were seeded in 96-well plates at 2-5×10^3 cells/well (cell line dependent) in culture medium. The cells were grown for 2 days before the compounds were dissolved in DMSO and added to final concentrations of 100 uM, 10 uM, or 1 uM (DMSO final concentration 0.5%). The cell culture was then assayed one day after the addition of the compounds. The assay used Alamar blue as a redox-sensitive dye that interrogates mitochondrial fitness of cells, and these assays provided a readout for cell proliferation and viability. The raw values were normalized to an average of several vehicle control wells and are presented as percent decrease in proliferation/viability, which is converted to half maximal effective concentration (EC50) values.

[2] = test system: HeLa cervical cancer cell line; assay: In-vitro cell survival assay (Alamar blue), HeLa; conditions: one day after compound addition
Description: as §1

[3] = test system: U87 glioblastoma cell line; assay: In-vitro cell survival assay (Alamar blue), U87; conditions: U87, one day after compound addition
Description: as §1

[4] = test system: LN18 glioblastoma cell line; assay: In-vitro cell survival assay (Alamar blue), LN18; conditions: LN18, one day after compound addition
Description: as §1

[5] = test system: U118 glioblastoma cell line; assay: In-vitro cell survival assay (Alamar blue), U118; conditions: U118, one day after compound addition
Description: as §1

Compound | pEC50 ([1]; 24 h) | pEC50 ([2]; Homo sapiens, 24 h) | pEC50 ([3]; 24 h) | pEC50 ([4]; Homo sapiens, LN-18, 24 h) | pEC50 ([5]; 24 h) | pEC50 [1] | pEC50 [2] | pEC50 [3] | pEC50 [4] | pEC50 [5]
CC(C)(C)c1cc(C(=O)NNc2cccc(Cl)c2)n(Cc2ccccc2)n1 [drawing 389] | < 4.00 | < 4.00 | 4.30 | < 4.00 | < 4.00 | – | – | – | – | –
CC(C)CN(CC(C)C)C(=O)c1cccc(Nc2nccc(Nc3ccc4ncsc4c3)n2)c1 [drawing 424] | 4.27 | 4.82 | 4.77 | 4.66 | < 4.00 | – | – | – | – | –
Cc1nc2cc(C(=O)N[C@H](c3ccccc3)c3cccnc3)ccc2[nH]1 [drawing 398] | < 4.00 | < 4.00 | < 4.00 | < 4.00 | < 4.00 | – | – | – | – | –
Nc1nc(Nc2ccc(C(=O)NCc3ccco3)cc2)cc(Nc2ccc3ncsc3c2)n1 [drawing 375] | < 4.00 | 4.36 | 4.49 | 4.74 | 4.57 | – | – | – | – | –
Clc1nccc(Nc2cc(C3CC3)[nH]n2)n1 [drawing 435] | 4.20 | 4.35 | 4.54 | < 4.00 | 4.51 | – | – | – | – | –
O=C(NCC(c1cccs1)S(=O)(=O)c1ccc(F)cc1)c1ccccc1 (stereo not shown) [drawing 434] | < 4.00 | 4.11 | 4.52 | 4.68 | 4.27 | – | – | – | – | –
O=C1c2ccccc2C(=O)N1C[C@H](O)Cn1nc(-c2cccs2)c2ccccc2c1=O [drawing 405] | < 4.00 | < 4.00 | < 4.00 | < 4.00 | < 4.00 | – | – | – | – | –
O=c1[nH][nH]c2nnc(-c3ccccc3)c(-c3ccccc3)c12 [drawing 394] | – | – | – | – | – | < 4.00 | < 4.00 | 4.55 | < 4.00 | < 4.00
FC(F)(F)c1cc(-n2c(Cc3cccc4ccccc34)n[nH]c2=S)cc(C(F)(F)F)c1 [drawing 397] | – | – | – | – | – | < 4.00 | 4.21 | 4.70 | < 4.00 | < 4.00
CN(C)CC(C)(C)CNC(=O)c1cccc(Nc2nccc(Nc3ccc4ncsc4c3)n2)c1 [drawing 413] | 4.14 | 4.62 | 4.49 | 5.05 | 4.12 | – | – | – | – | –
Cc1cccc(Nc2nccc(Nc3cccc(C(=O)NCCCN4CCOCC4)c3)n2)c1 [drawing 416] | 4.12 | 4.47 | 4.00 | 4.40 | < 4.00 | – | – | – | – | –
CN1CCN(C(=O)c2cccc(Nc3nccc(Nc4ccc5ncsc5c4)n3)c2)CC1 [drawing 415] | 4.49 | 4.96 | 4.66 | 4.85 | 4.41 | – | – | – | – | –
O=C1NCCN1CCN1C(=O)c2ccccc2N[C@H]1c1ccccc1 [drawing 391] | < 4.00 | < 4.00 | < 4.00 | 4.44 | 4.42 | – | – | – | – | –
O=C(NCc1ccco1)c1cccc(Nc2nccc(Nc3ccc4ncsc4c3)n2)c1 [drawing 376] | 4.46 | 5.00 | 4.68 | 5.00 | 4.74 | – | – | – | – | –
Cc1cccc(C(=O)n2nc(-c3ccco3)nc2NCc2ccccc2)c1 [drawing 431] | < 4.00 | < 4.00 | < 4.00 | < 4.00 | < 4.00 | – | – | – | – | –
Nc1nc(Nc2ccc(C(=O)NCCc3ccncc3)cc2)cc(Nc2ccc3ncsc3c2)n1 [drawing 417] | 4.48 | 4.66 | 4.77 | < 4.00 | < 4.00 | – | – | – | – | –

Compound | pEC50 ([1]; 24 h) | pEC50 ([2]; Homo sapiens, 24 h) | pEC50 ([3]; 24 h) | pEC50 ([4]; Homo sapiens, LN-18, 24 h) | pEC50 ([5]; 24 h) | pEC50 [1] | pEC50 [2] | pEC50 [3] | pEC50 [4] | pEC50 [5]
Cc1ccc(CNC(=O)c2cccc(Nc3nccc(Nc4ccc5ncsc5c4)n3)c2)o1 [drawing 419] | 4.72 | 5.00 | 4.80 | 5.15 | 4.77 | – | – | – | – | –
Nc1nc(Nc2ccc(C(=O)N3CCCCCC3)cc2)cc(Nc2ccc3ncsc3c2)n1 [drawing 409] | < 4.00 | 4.30 | 4.60 | 4.85 | < 4.00 | – | – | – | – | –
CC(C)(CO)NC(=O)c1cccc(Nc2nccc(Nc3ccc4ncsc4c3)n2)c1 [drawing 408] | 4.80 | 4.92 | 4.77 | 5.00 | 4.74 | – | – | – | – | –
Clc1ccc2nc(NCc3ccccn3)nc(-c3ccccc3)c2c1 [drawing 357] | < 4.00 | < 4.00 | 4.15 | 4.80 | < 4.00 | – | – | – | – | –
CCOC(Nc1cc(-c2sccc2-n2c(C)ccc2C)[nH]n1)OCC [drawing 364] | – | – | – | – | – | < 4.00 | < 4.00 | 4.59 | < 4.00 | < 4.00
Cc1[nH]c2nc(NCc3cccc([N+](=O)[O-])c3)nn2c(=O)c1Cc1ccccc1 [drawing 359] | < 4.00 | < 4.00 | 4.35 | < 4.00 | < 4.00 | – | – | – | – | –
O=C(NCCN1CCOCC1)c1cccc(Nc2nccc(Nc3ccc4ncsc4c3)n2)c1 [drawing 411] | < 4.00 | 4.72 | 4.74 | < 4.00 | < 4.00 | – | – | – | – | –
NC(=O)c1c(NC(=O)[C@H]2CC(=O)N(c3ccccc3)C2)sc2c1CCCC2 [drawing 356] | < 4.00 | < 4.00 | < 4.00 | < 4.00 | < 4.00 | – | – | – | – | –
Nc1nc(N)n(-c2ccccc2)/c(=N/c2ccccc2)n1 [drawing 395] | < 4.00 | < 4.00 | 4.48 | < 4.00 | < 4.00 | – | – | – | – | –
O=C1NN=C(c2ccccc2)/C1=C1\OC(c2ccccc2)=CS1 [drawing 392] | < 4.00 | 4.64 | 4.43 | 4.77 | 4.57 | – | – | – | – | –
NS(=O)(=O)c1ccc(CCNC(=O)c2cc(-c3cccs3)nc3ccccc23)cc1 [drawing 358] | < 4.00 | < 4.00 | < 4.00 | 4.60 | 4.54 | – | – | – | – | –
O=C(NC[C@H]1Cc2cc(-c3cncnc3)cc(Cl)c2O1)c1cccc(Cn2cccn2)c1 | < 4.00 | < 4.00 | < 4.00 | < 4.00 | < 4.00 | – | – | – | – | –
COc1ccccc1-c1cc(C(F)F)n2ncc(C(=O)NCc3cccnc3)c2n1 [drawing 361] | < 4.00 | < 4.00 | 4.66 | 4.80 | < 4.00 | – | – | – | – | –
O=C(NCc1ccc(F)cc1)c1cccc(Nc2nccc(Nc3ccc4ncsc4c3)n2)c1 [drawing 423] | 4.74 | 5.22 | 4.96 | 5.05 | 4.62 | – | – | – | – | –
O=C(c1ccccc1)n1nc(-c2ccco2)nc1NCc1ccccc1 | < 4.00 | < 4.00 | < 4.00 | < 4.00 | < 4.00 | – | – | – | – | –
O=c1c(O)c(-c2ccc(O)c(O)c2)oc2cc(O)cc(O)c12 [drawing 406] | < 4.00 | 4.68 | 4.44 | 4.62 | 4.48 | – | – | – | – | –

Reference: patent publication US9963452B2, “Methods, compounds, and compositions for inhibition of ROS” (AUGUSTA PHARMACEUTICALS INC., priority 2013, dated 2018)
